According to publication PMC11269945, “HTRF-based assay for detection of mono-ADP-ribosyl hydrolyzing macrodomains and inhibitor screening” (iScience, 2024):
Where a name gives a salt, the structure may show the parent alone. Read-outs that look alike come from different tables or passages of the source.

Experiments:
[1] = target: T1, MacroD1 (Homo sapiens, UniProt Q9BQ69); assay: biochemical
T1 sequence (Q9BQ69 90-325): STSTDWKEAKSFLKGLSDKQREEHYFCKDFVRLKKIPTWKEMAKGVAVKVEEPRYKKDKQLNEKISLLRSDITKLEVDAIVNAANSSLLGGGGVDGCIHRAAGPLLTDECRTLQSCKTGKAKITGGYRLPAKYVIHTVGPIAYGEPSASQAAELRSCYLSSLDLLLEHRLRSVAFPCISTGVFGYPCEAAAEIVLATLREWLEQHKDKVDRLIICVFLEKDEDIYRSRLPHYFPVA

[2] = target: T2, PARP14 Mac2/3 (Homo sapiens, UniProt Q460N5); assay: biochemical; assay type: binding
T2 sequence (Q460N5 994-1393): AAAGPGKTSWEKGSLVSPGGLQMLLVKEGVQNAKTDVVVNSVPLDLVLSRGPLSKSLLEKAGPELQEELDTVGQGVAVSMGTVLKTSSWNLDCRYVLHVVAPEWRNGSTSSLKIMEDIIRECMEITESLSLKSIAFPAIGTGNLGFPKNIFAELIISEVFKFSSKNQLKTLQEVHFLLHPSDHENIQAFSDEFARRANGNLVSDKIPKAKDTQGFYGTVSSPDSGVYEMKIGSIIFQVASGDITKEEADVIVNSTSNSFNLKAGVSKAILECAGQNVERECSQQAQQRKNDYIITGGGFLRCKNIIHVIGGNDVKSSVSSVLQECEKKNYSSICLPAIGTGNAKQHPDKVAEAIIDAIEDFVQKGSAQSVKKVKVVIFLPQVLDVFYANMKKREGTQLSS

[3] = target: T1, MacroD1; set-up: method as in PMID 18983849; conditions: read-out: Kd for free ADPr, MacroD1; cited from earlier work
[4] = target: HCoV-229e macrodomain (Human coronavirus 229E, UniProt P0C6X1); assay: DeMAR HTRF deMARylation assay, wash protocol; assay type: biochemical
[5] = target: T3, SARS-CoV-2 Mac1 (Severe acute respiratory syndrome coronavirus 2, UniProt P0DTD1); assay type: biochemical
[6] = target: CHIKV macrodomain (Chikungunya virus, UniProt Q8JUX6, C1333S); assay type: biochemical, Chikungunya (CHIKV) alphavirus
[7] = target: T4, MacroD2 (Homo sapiens, UniProt A1Z1Q3); assay type: biochemical; conditions: read-out: IC50 MacroD2
T4 sequence (A1Z1Q3 4-243): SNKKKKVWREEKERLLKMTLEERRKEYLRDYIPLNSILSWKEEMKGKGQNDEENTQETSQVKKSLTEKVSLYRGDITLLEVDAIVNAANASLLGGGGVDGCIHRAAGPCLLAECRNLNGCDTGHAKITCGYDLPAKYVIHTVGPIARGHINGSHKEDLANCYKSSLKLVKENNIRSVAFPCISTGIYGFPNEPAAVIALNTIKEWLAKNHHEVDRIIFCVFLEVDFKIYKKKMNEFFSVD

[8] = target: T3, SARS-CoV-2 Mac1; assay: biochemical
[9] = target: T5, TARG1 (Homo sapiens, UniProt Q9Y530); assay type: biochemical; conditions: read-out: IC50 TARG1
T5 construct: "Uniprot: Q9Y530" res; His10 with TEV site (N, cleaved yes); made in house; host or cells: E. coli T7-express
T5 sequence (Q9Y530 3-152): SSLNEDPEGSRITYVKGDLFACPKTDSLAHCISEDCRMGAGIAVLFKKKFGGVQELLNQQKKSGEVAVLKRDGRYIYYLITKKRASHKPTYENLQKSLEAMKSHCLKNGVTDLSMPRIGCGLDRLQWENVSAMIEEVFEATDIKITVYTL

[10] = system: MARylated Tb-PARP10cat; assay type: biochemical, human
[11] = system: MARylated Tb-PARP10cat; assay type: biochemical, human; remark: listed apart in the source
[12] = read-out: IC50 HCoV-229e, wash setup, 2 h, 80 nM macrodomain, 6 nM immobilized Tb-PARP10cat

Row | Molecule | readout quenching in one-pot setup (PARP14 Mac2/3 off-target), in words [2] | IC50 [4, 12] [µM] | EC80 Wash (2 h) [10] | EC80 One-pot (1 h) [11] | further results
1 | Nc1ncnc2c1ncn2C1OC(COP(=O)(O)OP(=O)(O)OCC2OC(O)C(O)C2O)C(O)C1O (centres unmarked) [ADPr, Adenosine 5′-diphosphoribose sodium salt] | – | – | – | – | IC50 [1]: 2 µM; IC50 [2]: 67 µM; Kd [3]: 0.9 µM; IC50 [4]: ~460 µM
2 | N#C[C@@]1(c2ccc3c(N)ncnn23)O[C@H](CO)[C@@H](O)[C@H]1O [GS-441524] | clear and concentration-dependent loss of signal | > 667 | – | – | inhibition of SARS-CoV-2 Mac1 in words [5]: slightly inhibits; IC50 CHIKV [6]: slight activity
3 | O=C(Nc1ccc(C(=O)NC2c3cccc(O)c3CC2C(=O)O)cc1)NC1CC1 (centres unmarked) [Z8539] | does not show a strong quenching effect | > 667 | – | – | –
4 | O=C(Nc1ccccc1)Nc1ccc(C(=O)NC2c3cccc(O)c3CC2C(=O)O)cc1 (centres unmarked) [Z8539_0023] | pronounced readout quenching | – | – | – | IC50 [7]: > 667 µM; IC50 ([1]; read-out: IC50 MacroD1): > 667 µM; IC50 [8]: 6 µM; IC50 [9]: > 667 µM
5 | O=C(Nc1ccc(C(=O)NC2c3cccc(O)c3CC2C(=O)O)c(O)c1)NC1CC1 (centres unmarked) [Z8539_0072] | – | > 667 | – | – | IC50 [8]: 14 µM
6 | Oc1c(Cl)cc(Cl)c(Cl)c1Cc1c(O)c(Cl)cc(Cl)c1Cl [hexachlorophene] | – | – | – | – | inhibition of SARS-CoV-2 Mac1 in words [5]: limited efficacy
7 | HCoV-229e: recombinant HCoV-229E macrodomain, Uniprot P0C6X1 res. E1270-1437 (protein, UniProt P0C6X1 1270-1437, looked up, fragment, Non-structural protein 3 macrodomain) EKLNAFLVHDNVAFYQGDVDTVVNGVDFDFIVNAANENLAHGGGLAKALDVYTKGKLQRLSKEHIGLAGKVKVGTGVMVECDSLRIFNVVGPRKGKHERDLLIKAYNTINNEQGTPLTPILSCGIFGIKLETSLEVLLDVCNTKEVKVFVYTDTEVCKVKDFVSGLVN | – | – | 0.015 µM | 0.036 µM | –
8 | MacroD1: recombinant human MacroD1, Uniprot Q9BQ69 res. 90-325 (protein, UniProt Q9BQ69 90-325, looked up, fragment) STSTDWKEAKSFLKGLSDKQREEHYFCKDFVRLKKIPTWKEMAKGVAVKVEEPRYKKDKQLNEKISLLRSDITKLEVDAIVNAANSSLLGGGGVDGCIHRAAGPLLTDECRTLQSCKTGKAKITGGYRLPAKYVIHTVGPIAYGEPSASQAAELRSCYLSSLDLLLEHRLRSVAFPCISTGVFGYPCEAAAEIVLATLREWLEQHKDKVDRLIICVFLEKDEDIYRSRLPHYFPVA | – | – | 0.003 µM | 0.004 µM | –
9 | TARG1: recombinant human TARG1, Uniprot Q9Y530 res. S3-152 (protein, UniProt Q9Y530 3-152, looked up, fragment) SSLNEDPEGSRITYVKGDLFACPKTDSLAHCISEDCRMGAGIAVLFKKKFGGVQELLNQQKKSGEVAVLKRDGRYIYYLITKKRASHKPTYENLQKSLEAMKSHCLKNGVTDLSMPRIGCGLDRLQWENVSAMIEEVFEATDIKITVYTL | – | – | ∼ 830 nM | ∼2256 nM | –
10 | MacroD2: recombinant human MacroD2, Uniprot A1Z1Q3 res. 4-243 (protein, UniProt A1Z1Q3 4-243, looked up, fragment) SNKKKKVWREEKERLLKMTLEERRKEYLRDYIPLNSILSWKEEMKGKGQNDEENTQETSQVKKSLTEKVSLYRGDITLLEVDAIVNAANASLLGGGGVDGCIHRAAGPCLLAECRNLNGCDTGHAKITCGYDLPAKYVIHTVGPIARGHINGSHKEDLANCYKSSLKLVKENNIRSVAFPCISTGIYGFPNEPAAVIALNTIKEWLAKNHHEVDRIIFCVFLEVDFKIYKKKMNEFFSVD | – | – | 0.002 µM | 0.003 µM | –
